Results taken from PubChem BioAssay (NCI).
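The concentration for 50% growth inhibition is given as GI50. Definition used: TGI = concentration required for complete inhibition of growth.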

Legend:
Assay in all cases: NCI-60 cell line screen, 384-well format
K-562 leukemia = test system: K-562 leukemia
A549 NSCLC = test system: A549 NSCLC
IGROV1 ovarian = test system: IGROV1 ovarian
UO-31 renal = test system: UO-31 renal
LOX IMVI melanoma = test system: LOX IMVI melanoma
NCI-H23 lung = test system: NCI-H23 lung
COLO 205 colon = test system: COLO 205 colon
NCI/ADR-RES ovarian = test system: NCI/ADR-RES ovarian
T-47D breast = test system: T-47D breast
SK-MEL-2 melanoma = test system: SK-MEL-2 melanoma
HL-60(TB) leukemia = test system: HL-60(TB) leukemia
SN12C renal = test system: SN12C renal
SK-MEL-28 melanoma = test system: SK-MEL-28 melanoma
SNB-19 CNS = test system: SNB-19 CNS
MDA-MB-468 breast = test system: MDA-MB-468 breast
NCI-H322M lung = test system: NCI-H322M lung
PC-3 prostate = test system: PC-3 prostate
OVCAR-4 ovarian = test system: OVCAR-4 ovarian
M14 melanoma = test system: M14 melanoma
HCT-116 colon = test system: HCT-116 colon
NCI-H522 lung = test system: NCI-H522 lung
ACHN renal = test system: ACHN renal
786-0 renal = test system: 786-0 renal
RXF 393 renal = test system: RXF 393 renal
NCI-H226 lung = test system: NCI-H226 lung
SR leukemia = test system: SR leukemia
U251 glioblastoma = test system: U251 glioblastoma
CCRF-CEM leukemia = test system: CCRF-CEM leukemia
A498 renal = test system: A498 renal
NCI-H460 NSCLC = test system: NCI-H460 NSCLC
SNB-75 CNS = test system: SNB-75 CNS
TK-10 renal = test system: TK-10 renal
SF-295 CNS = test system: SF-295 CNS
HT29 colon = test system: HT29 colon
MOLT-4 leukemia = test system: MOLT-4 leukemia
HCC-2998 colon = test system: HCC-2998 colon
RPMI-8226 leukemia = test system: RPMI-8226 leukemia
OVCAR-3 ovarian = test system: OVCAR-3 ovarian
MALME-3M melanoma = test system: MALME-3M melanoma
SK-MEL-5 melanoma = test system: SK-MEL-5 melanoma
HOP-62 NSCLC = test system: HOP-62 NSCLC
EKVX NSCLC = test system: EKVX NSCLC
MDA-MB-435 melanoma = test system: MDA-MB-435 melanoma
KM12 colon = test system: KM12 colon
OVCAR-8 ovarian = test system: OVCAR-8 ovarian
BT-549 breast = test system: BT-549 breast
SF-268 CNS = test system: SF-268 CNS
UACC-257 melanoma = test system: UACC-257 melanoma
UACC-62 melanoma = test system: UACC-62 melanoma
SW-620 colon = test system: SW-620 colon
HOP-92 NSCLC = test system: HOP-92 NSCLC
MDA-MB-231 breast = test system: MDA-MB-231 breast
HCT-15 colon = test system: HCT-15 colon
OVCAR-5 ovarian = test system: OVCAR-5 ovarian
MCF7 breast = test system: MCF7 breast
SF-539 CNS = test system: SF-539 CNS
DU-145 prostate = test system: DU-145 prostate
CAKI-1 renal = test system: CAKI-1 renal
SK-OV-3 ovarian = test system: SK-OV-3 ovarian

Q: What does the source list for `CC(C)Oc1ccc(-c2nn([C@@H](C)c3oc4ccc(F)cc4c(=O)c3-c3cccc(F)c3)c3ncnc(N)c23)cc1F`?
A: GI50 (K-562 leukemia): 5.18 µM; TGI (K-562 leukemia): > 100 µM; GI50 (A549 NSCLC): 11.1 µM; TGI (A549 NSCLC): > 100 µM; GI50 (IGROV1 ovarian): > 100 µM; TGI (IGROV1 ovarian): > 100 µM; GI50 (UO-31 renal): 1.94 µM; TGI (UO-31 renal): 7.54 µM; GI50 (LOX IMVI melanoma): > 100 µM; TGI (LOX IMVI melanoma): > 100 µM; GI50 (NCI-H23 lung): 38.5 µM; TGI (NCI-H23 lung): > 100 µM; GI50 (COLO 205 colon): > 100 µM; TGI (COLO 205 colon): > 100 µM; GI50 (NCI/ADR-RES ovarian): 19.5 µM; TGI (NCI/ADR-RES ovarian): > 100 µM; GI50 (T-47D breast): 6.03 µM; TGI (T-47D breast): > 100 µM; GI50 (SK-MEL-2 melanoma): > 100 µM; TGI (SK-MEL-2 melanoma): > 100 µM; GI50 (HL-60(TB) leukemia): 5.31 µM; TGI (HL-60(TB) leukemia): > 36 µM; GI50 (SN12C renal): > 100 µM; TGI (SN12C renal): > 100 µM; GI50 (SK-MEL-28 melanoma): > 100 µM; TGI (SK-MEL-28 melanoma): > 100 µM; GI50 (SNB-19 CNS): > 100 µM; TGI (SNB-19 CNS): > 100 µM; GI50 (MDA-MB-468 breast): 5.71 µM; TGI (MDA-MB-468 breast): > 83.7 µM; GI50 (NCI-H322M lung): > 100 µM; TGI (NCI-H322M lung): > 100 µM; GI50 (PC-3 prostate): 7.27 µM; TGI (PC-3 prostate): > 100 µM; GI50 (OVCAR-4 ovarian): 6.49 µM; TGI (OVCAR-4 ovarian): > 100 µM; GI50 (M14 melanoma): > 100 µM; TGI (M14 melanoma): > 100 µM; GI50 (HCT-116 colon): 13.9 µM; TGI (HCT-116 colon): > 100 µM; GI50 (NCI-H522 lung): 12.9 µM; TGI (NCI-H522 lung): > 100 µM; GI50 (ACHN renal): > 86.8 µM; TGI (ACHN renal): > 100 µM; GI50 ([…]-0 renal): 26.2 µM; TGI (786-0 renal): > 100 µM; GI50 (RXF 393 renal): 2.45 µM; TGI (RXF 393 renal): 11.5 µM; GI50 (NCI-H226 lung): 51.5 µM; TGI (NCI-H226 lung): > 100 µM; GI50 (SR leukemia): 2.84 µM; TGI (SR leukemia): 14.9 µM; GI50 (U251 glioblastoma): 88.8 µM; TGI (U251 glioblastoma): > 100 µM; GI50 (CCRF-CEM leukemia): 3.62 µM; TGI (CCRF-CEM leukemia): > 83.9 µM; GI50 (A498 renal): 8.65 µM; TGI (A498 renal): > 100 µM; GI50 (NCI-H460 NSCLC): 10.5 µM; TGI (NCI-H460 NSCLC): > 100 µM; GI50 (SNB-75 CNS): 33.5 µM; TGI (SNB-75 CNS): > 100 µM; GI50 (TK-10 renal): > 100 µM; TGI (TK-10 renal): > 100 µM; GI50 (SF-295 CNS): > 100 µM; TGI (SF-295 CNS): > 100 µM; GI50 (HT29 colon): > 100 µM; TGI (HT29 colon): > 100 µM; GI50 (MOLT-4 leukemia): 3.51 µM; TGI (MOLT-4 leukemia): > 100 µM; GI50 (HCC-2998 colon): > 100 µM; TGI (HCC-2998 colon): > 100 µM; GI50 (RPMI-8226 leukemia): 3.34 µM; TGI (RPMI-8226 leukemia): 9.04 µM; GI50 (OVCAR-3 ovarian): 12.1 µM; TGI (OVCAR-3 ovarian): > 100 µM; GI50 (MALME-3M melanoma): > 100 µM; TGI (MALME-3M melanoma): > 100 µM; GI50 (SK-MEL-5 melanoma): > 29.3 µM; TGI (SK-MEL-5 melanoma): > 100 µM; GI50 (HOP-62 NSCLC): > 100 µM; TGI (HOP-62 NSCLC): > 100 µM; GI50 (EKVX NSCLC): > 100 µM; TGI (EKVX NSCLC): > 100 µM; GI50 (MDA-MB-435 melanoma): > 100 µM; TGI (MDA-MB-435 melanoma): > 100 µM; GI50 (KM12 colon): > 100 µM; TGI (KM12 colon): > 100 µM; GI50 (OVCAR-8 ovarian): 11.8 µM; TGI (OVCAR-8 ovarian): > 100 µM; GI50 (BT-549 breast): 10.3 µM; TGI (BT-549 breast): > 100 µM; GI50 (SF-268 CNS): > 100 µM; TGI (SF-268 CNS): > 100 µM; GI50 (UACC-257 melanoma): > 100 µM; TGI (UACC-257 melanoma): > 100 µM; GI50 (UACC-62 melanoma): > 100 µM; TGI (UACC-62 melanoma): > 100 µM; GI50 (SW-620 colon): > 90.1 µM; TGI (SW-620 colon): > 100 µM; GI50 (HOP-92 NSCLC): 8.09 µM; TGI (HOP-92 NSCLC): > 80.9 µM; GI50 (MDA-MB-231 breast): 9.94 µM; TGI (MDA-MB-231 breast): > 100 µM; GI50 (HCT-15 colon): 32.5 µM; TGI (HCT-15 colon): > 100 µM; GI50 (OVCAR-5 ovarian): > 100 µM; TGI (OVCAR-5 ovarian): > 100 µM; GI50 (MCF7 breast): 9.51 µM; TGI (MCF7 breast): > 100 µM; GI50 (SF-539 CNS): 20.3 µM; TGI (SF-539 CNS): > 100 µM; GI50 (DU-145 prostate): > 100 µM; TGI (DU-145 prostate): > 100 µM; GI50 (CAKI-1 renal): > 100 µM; TGI (CAKI-1 renal): > 100 µM; GI50 (SK-OV-3 ovarian): > 100 µM; TGI (SK-OV-3 ovarian): > 100 µM
